Results published in patent US9518051B2, “Pyrroloquinoline alkaloids as antimalarial agents and process for the preparation thereof” (Council of Scientific & Industrial Research, priority 2012, dated 2016).

Columns and labels:
[1] = tested on: Plasmodium falciparum 3D7 (chloroquine sensitive strain); test: Anti malarial activity in vitro on Plasmodium falciparum at erythrocyte stage; assay type: cell-based; settings: compound in crude form
Procedure: In a preferred embodiment, the compound NCLite-M1 was tested for anti-malarial activity against a known parasite Plasmodium falciprum 3D7 was used, which is chloroquine sensitive strain and the results are tabulated herein.
This study was performed in vitro on Plasmodium falciparum at erythrocyte stage. The test protocol for testing antimalarial activity is from R. E. Desjardins, C. J. Canfield, J. D. Haynes and J. D. Chulay Antimicrob. Agents Chemother. 1979, 16, 710.
A known parasite 3D7 was used, which is Chloroquine sensitive strain. 2 mg of the compound NCLite-M1 which has a molecular weight of 326.35, was dissolved in 10 mL of EtOH and used as a stock. […] Further studies using highly pure compound and its soluble salts are planned.

**Q.** For Nc1ncnc2c1ncn2Cc1nc2ccccc2c2cc[nH]c12 [Aplidiopsamine A], which melting point is on record?
**A.** 229 to 231 °C

**Q.** What does the source list for O=c1c2ccccc2ncn1Cc1nc2ccccc2c2cc[nH]c12 [NCLite-M1, 3-((3H-pyrrolo[2,3-c]quinolin-4-yl)methyl)quinazolin-4(3H)-one]?
**A.** lowest concentration at which the compound is active ([1]; P. falciparum 3D7): 2 µmol; inhibition at 25 µM ([1]; Plasmodium falciparum, concentration 25 μM, P. falciparum 3D7, erythrocyte stage, read-out: % inhibition by NCLite-M1): 19.5%; inhibition at 50 µM ([1]; Plasmodium falciparum, concentration 50 μM, P. falciparum 3D7, erythrocyte stage, read-out: % inhibition by NCLite-M1): 77.2%; inhibition at 75 µM ([1]; Plasmodium falciparum, concentration 75 μM, P. falciparum 3D7, erythrocyte stage, read-out: % inhibition by NCLite-M1): 89.4%; % inhibition by NCLite-M1 ([1]; concentration 2-5 μM, P. falciparum 3D7, erythrocyte stage): 17.6%

**Q.** Which melting point does the source give for Cc1nc2cc(Cl)ccc2c2ccn(S(=O)(=O)c3ccccc3)c12 [Table 2, entry 2, 7-chloro-4-methyl-3-(phenylsulfonyl)-3H-pyrrolo[2,3-c]quinoline] here?
**A.** 178 to 180 °C

**Q.** For N#Cc1ccc2nc(-c3ccccc3)c3ccccc3c2c1 [Table 2, entry 5, 6-phenylphenanthridine-2-carbonitrile], which melting point is on record?
**A.** 233 to 235 °C

**Q.** Which melting point does the source give for N#Cc1ccc2[nH]c(-c3ccccc3)cc2c1 [Table 2, entry 6, 2-phenyl-1H-indole-5-carbonitrile] here?
**A.** 194 to 196 °C

**Q.** For Cc1nc2ccccc2c2ccn(S(=O)(=O)c3ccccc3)c12 [compound 3, 4-Methyl-3-(phenylsulfonyl)-3H-pyrrolo[2,3-c]quinoline], which melting point is on record?
**A.** 143 to 145 °C
